Measured values published in patent US8415469B2, “Compounds and methods for kinase modulation, and indications therefor” (Plexxikon Inc., priority 2005, dated 2013).

How the values were obtained:
Assay type in all cases: biochemical
B-Raf V600E = biological target: T1, B-Raf V600E (Homo sapiens, UniProt P15056, V600E); assay: AlphaScreen kinase assay, B-Raf V600E; conditions: read-out: IC50, activity toward kinase B-Raf V600E
T1 construct: P4254. pFastBacBD-CDC37 BRAF D437-K722-X, V600E; His6 with pFastBac HT leader (TEV site) (N); made in house; host or cells: Sf9 (baculovirus; chaperone CDC37 co-expressed)

Plk1 = Plk1 (Homo sapiens, UniProt P53350); assay: AlphaScreen kinase assay, Plk1; conditions: read-out: IC50, activity toward kinase Plk1
Source text: (§1) AlphaScreen assay was used to screen additional kinases. The assay is similarly dependent on the phosphorylation of a peptide substrate. In this assay, an antibody that recognizes phosphorylated substrate is bound to an acceptor bead. The peptide substrate is attached to biotin, which binds to a donor head that contains streptavidin. Thus phosphorylated substrate is bound by antibody and streptavidin, bringing the donor and acceptor heads into close proximity when kinase is not inhibited. The donor produces singlet oxygen which results in emission from the acceptor when they are in close proximity. Conversely, when kinase is inhibited, the donor and acceptor beads are not associated and the emission from the acceptor is reduced.
(§2) AlphaScreen assays were done using compounds dissolved in DMSO to a concentration of 20 mM. The compounds were diluted accordingly to the desired final concentrations in each sample well, using 1:3 serial dilution for a total of 8 concentration points.

FGFR1 = biological target: T2, FGFR1 (Homo sapiens, UniProt P11362, C488A/C584S); assay: AlphaScreen kinase assay, FGFR1; conditions: read-out: IC50, activity toward kinase FGFR
T2 construct: P1351.pET N6 BI-PTP FGFR A458-E765-X C488A, C584S; made in house; host or cells: E. coli (PTP1B co-expressed)

Fak = biological target: T3, Fak (Homo sapiens, UniProt Q05397); assay: AlphaScreen kinase assay, Fak; conditions: read-out: IC50, activity toward kinase Fak
T3 construct: P1358.pFastBacHtb FAK S411-Q686-X; His6 with pFastBacHTb leader (TEV site) (N); made in house; host or cells: Sf9 (baculovirus)

Kit = biological target: T4, Kit (Homo sapiens, UniProt P10721); assay: AlphaScreen kinase assay, Kit; conditions: read-out: IC50, activity toward kinase Kit
T4 construct: P1332.N6 BI PTP KIT M552-K948-X COD; His6 (N); made in house; host or cells: E. coli (PTP1B co-expressed)

Jnk3 = biological target: T5, Jnk3 (Homo sapiens, UniProt P53779); assay: AlphaScreen kinase assay, Jnk3; conditions: read-out: IC50, activity toward kinase Jnk3
T5 construct: purchased Upstate Biotechnology

Met = biological target: T6, Met (Homo sapiens, UniProt P08581); assay: AlphaScreen kinase assay, Met; conditions: read-out: IC50, activity toward kinase Met
T6 construct: P1818.pETN6 BI-PTP MET G1056-G1364-X WT; His6 (N); made in house; host or cells: E. coli (PTP1B co-expressed)
Outline: (§3)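 Inhibition reads as diminished acceptor emission, since unphosphorylated peptide fails to bridge antibody acceptor beads and streptavidin donor beads. Titration: eight points, 1:3 steps, stocks at 20 mM in DMSO.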

Itk = biological target: T7, Itk (Homo sapiens, UniProt Q08881); assay: AlphaScreen kinase assay, Itk; conditions: read-out: IC50, activity toward kinase Itk
T7 sequence (Q08881 1-620): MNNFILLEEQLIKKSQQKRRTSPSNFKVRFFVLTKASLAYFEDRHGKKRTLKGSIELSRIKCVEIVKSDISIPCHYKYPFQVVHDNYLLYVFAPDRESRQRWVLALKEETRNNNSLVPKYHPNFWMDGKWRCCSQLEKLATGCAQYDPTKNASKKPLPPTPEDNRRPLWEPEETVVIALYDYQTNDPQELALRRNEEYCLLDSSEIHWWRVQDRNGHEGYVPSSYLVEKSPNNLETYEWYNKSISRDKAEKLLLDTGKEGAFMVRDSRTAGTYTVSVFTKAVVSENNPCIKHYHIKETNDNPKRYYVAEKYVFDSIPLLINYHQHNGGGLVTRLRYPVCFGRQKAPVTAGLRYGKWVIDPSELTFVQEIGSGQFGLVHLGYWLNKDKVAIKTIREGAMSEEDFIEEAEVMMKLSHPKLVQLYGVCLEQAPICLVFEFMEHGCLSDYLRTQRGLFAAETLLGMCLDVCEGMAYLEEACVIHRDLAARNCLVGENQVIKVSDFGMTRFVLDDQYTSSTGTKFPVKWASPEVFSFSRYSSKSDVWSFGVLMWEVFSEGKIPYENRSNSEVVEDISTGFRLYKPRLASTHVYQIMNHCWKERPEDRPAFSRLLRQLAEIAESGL
Source text: as §1, §2

Akt3 = Akt3 (Homo sapiens, UniProt Q9Y243); assay: AlphaScreen kinase assay, Akt3; conditions: read-out: IC50, activity toward kinase Akt3
Outline: as §3

Flt1 = biological target: T8, Flt1 (Homo sapiens, UniProt P17948); assay: AlphaScreen kinase assay, Flt1; conditions: read-out: IC50, activity toward kinase Flt1
T8 construct: P1826.pETN6 BI-PTP FLT1 M799-D1165-X WT; His6 (N); made in house; host or cells: E. coli (PTP1B co-expressed)
T8 sequence (P17948 with tags, fused parts or gaps): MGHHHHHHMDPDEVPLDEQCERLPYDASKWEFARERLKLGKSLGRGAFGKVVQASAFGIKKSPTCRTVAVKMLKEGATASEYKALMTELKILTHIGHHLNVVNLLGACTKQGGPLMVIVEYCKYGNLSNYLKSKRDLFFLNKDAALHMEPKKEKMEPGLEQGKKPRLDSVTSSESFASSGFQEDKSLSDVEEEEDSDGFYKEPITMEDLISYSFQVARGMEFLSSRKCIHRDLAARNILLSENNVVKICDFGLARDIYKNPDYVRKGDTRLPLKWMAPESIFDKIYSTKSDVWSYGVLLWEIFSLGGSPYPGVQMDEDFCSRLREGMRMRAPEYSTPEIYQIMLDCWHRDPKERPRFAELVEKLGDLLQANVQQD

Kdr = biological target: T9, Kdr (Homo sapiens, UniProt P35968); assay: Z'-Lyte FRET kinase assay (Invitrogen), Kdr; conditions: read-out: IC50, activity toward kinase Kdr
T9 construct: purchased Invitrogen (assay run by Invitrogen)

Ret = biological target: T10, Ret (Homo sapiens, UniProt P07949); assay: AlphaScreen kinase assay, Ret; conditions: read-out: IC50, activity toward kinase Ret
T10 construct: P1378.pET-SF BI-PTP RET H661-R1012 HIS; made in house
T10 sequence (P07949 with tags, fused parts or gaps): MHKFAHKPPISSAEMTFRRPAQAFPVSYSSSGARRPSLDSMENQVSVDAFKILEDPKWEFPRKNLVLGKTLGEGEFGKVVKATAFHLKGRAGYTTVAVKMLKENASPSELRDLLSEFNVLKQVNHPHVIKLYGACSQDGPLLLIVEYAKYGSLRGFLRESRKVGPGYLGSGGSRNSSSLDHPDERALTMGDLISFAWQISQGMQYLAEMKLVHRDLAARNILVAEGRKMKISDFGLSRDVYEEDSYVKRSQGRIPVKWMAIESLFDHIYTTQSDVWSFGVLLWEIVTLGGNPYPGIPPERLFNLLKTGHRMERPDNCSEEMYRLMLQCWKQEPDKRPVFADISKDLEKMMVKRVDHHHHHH

Fms = biological target: T11, Fms (Homo sapiens, UniProt P07333); assay: AlphaScreen kinase assay, Fms; conditions: read-out: IC50, activity toward kinase Fms
T11 construct: purchased Upstate Biotechnology

B-Raf = biological target: T12, B-Raf (Homo sapiens, UniProt P15056); assay: AlphaScreen kinase assay, B-Raf; conditions: read-out: IC50, activity toward kinase B-Raf
T12 construct: purchased Upstate Biotechnology

c-Raf-1 = biological target: T13, c-Raf-1 (Homo sapiens, UniProt P04049); assay: AlphaScreen kinase assay, c-Raf-1; conditions: read-out: IC50, activity toward kinase c-Raf-1
T13 construct: purchased Upstate Biotechnology

Flt4 = biological target: T14, Flt4 (Homo sapiens, UniProt P35916); assay: AlphaScreen kinase assay, Flt4; conditions: read-out: IC50, activity toward kinase Flt4
T14 construct: purchased ProQinase GmbH (Freiburg, Germany)
Outline: as §3

Jnk1 = biological target: T15, Jnk1 (Homo sapiens, UniProt P45983); assay: AlphaScreen kinase assay, Jnk1; conditions: read-out: IC50, activity toward kinase Jnk1
T15 construct: purchased Upstate Biotechnology
Method: AlphaScreen assays were done using compounds dissolved in DMSO to a concentration of 20 mM. The compounds were diluted accordingly to the desired final concentrations in each sample well, using 1:3 serial dilution for a total of 8 concentration points. Plates were prepared such that each kinase reaction is 20 μl in 1× kinase buffer, 5% DMSO and 10 μM ATP. After incubation of the kinase reaction for 1 hour at room temperature, 5 μl of donor beads in stop buffer (50 mM EDTA in 1× kinase buffer) was added, the sample was mixed and incubated for 20 minutes at room temperature before adding 5 μl of acceptor beads in stop buffer. The samples were incubated for 60 minutes at room temperature and the signal per well was read on AlphaQuest reader.

Abl = biological target: T16, Abl (Homo sapiens, UniProt P00519); assay: AlphaScreen kinase assay, Abl; conditions: read-out: activity toward kinase Abl, IC50
T16 construct: P1121. pET-SPEC BI-PTP Abl G227-V515-X; His6 (N); made in house; host or cells: E. coli (PTP1B co-expressed)
T16 sequence (P00519 with tags, fused parts or gaps): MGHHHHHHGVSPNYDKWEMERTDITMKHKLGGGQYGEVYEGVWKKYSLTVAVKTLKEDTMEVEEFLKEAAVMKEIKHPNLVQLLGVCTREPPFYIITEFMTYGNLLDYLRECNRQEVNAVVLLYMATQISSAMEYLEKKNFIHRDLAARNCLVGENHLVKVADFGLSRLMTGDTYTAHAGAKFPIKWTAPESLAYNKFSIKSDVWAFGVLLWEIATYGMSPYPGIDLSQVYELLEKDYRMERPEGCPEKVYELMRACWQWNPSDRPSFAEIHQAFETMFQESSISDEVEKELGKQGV
Outline: as §3

Jnk2 = biological target: T17, Jnk2 (Homo sapiens, UniProt P45984); assay: AlphaScreen kinase assay, Jnk2; conditions: read-out: IC50, activity toward kinase Jnk2
T17 construct: purchased Roche Protein Expression Group (Indianapolis, IN)
Outline: as §3

Btk = biological target: T18, Btk (Homo sapiens, UniProt Q06187); assay: Z'-Lyte FRET kinase assay (Invitrogen), Btk; conditions: read-out: IC50, activity toward kinase Btk
T18 construct: purchased Invitrogen (assay run by Invitrogen)

Stk6 = biological target: T19, Stk6 (Homo sapiens, UniProt O14965); assay: Z'-Lyte FRET kinase assay (Invitrogen), Stk6; conditions: read-out: IC50, activity toward kinase Stk6
T19 construct: purchased Invitrogen (Carlsbad, Calif.), screening service
T19 sequence (O14965 1-403): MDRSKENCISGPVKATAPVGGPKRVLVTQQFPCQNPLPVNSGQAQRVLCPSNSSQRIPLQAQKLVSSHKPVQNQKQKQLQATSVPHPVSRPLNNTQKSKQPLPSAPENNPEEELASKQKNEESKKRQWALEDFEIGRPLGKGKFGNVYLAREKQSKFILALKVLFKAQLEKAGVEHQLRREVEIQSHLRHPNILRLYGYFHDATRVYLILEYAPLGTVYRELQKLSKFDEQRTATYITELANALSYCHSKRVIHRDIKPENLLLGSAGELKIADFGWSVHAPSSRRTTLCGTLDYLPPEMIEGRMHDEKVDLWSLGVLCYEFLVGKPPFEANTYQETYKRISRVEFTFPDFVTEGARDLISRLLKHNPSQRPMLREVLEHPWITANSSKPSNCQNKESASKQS

Measured: IC50

T5 sequence (P53779 whole entry): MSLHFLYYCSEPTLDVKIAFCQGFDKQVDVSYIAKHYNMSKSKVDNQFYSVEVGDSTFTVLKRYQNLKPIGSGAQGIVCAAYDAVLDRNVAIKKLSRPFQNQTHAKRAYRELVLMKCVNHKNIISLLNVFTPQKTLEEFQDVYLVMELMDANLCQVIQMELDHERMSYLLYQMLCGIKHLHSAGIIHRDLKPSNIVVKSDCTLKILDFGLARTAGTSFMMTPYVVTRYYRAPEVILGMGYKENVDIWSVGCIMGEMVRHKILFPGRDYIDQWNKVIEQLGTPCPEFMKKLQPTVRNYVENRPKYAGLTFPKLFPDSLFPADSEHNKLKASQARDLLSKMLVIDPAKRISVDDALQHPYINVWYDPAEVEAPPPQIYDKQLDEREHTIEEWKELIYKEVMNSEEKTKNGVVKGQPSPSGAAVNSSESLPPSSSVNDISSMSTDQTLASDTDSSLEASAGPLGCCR
T4 sequence (P10721 with tags, fused parts or gaps): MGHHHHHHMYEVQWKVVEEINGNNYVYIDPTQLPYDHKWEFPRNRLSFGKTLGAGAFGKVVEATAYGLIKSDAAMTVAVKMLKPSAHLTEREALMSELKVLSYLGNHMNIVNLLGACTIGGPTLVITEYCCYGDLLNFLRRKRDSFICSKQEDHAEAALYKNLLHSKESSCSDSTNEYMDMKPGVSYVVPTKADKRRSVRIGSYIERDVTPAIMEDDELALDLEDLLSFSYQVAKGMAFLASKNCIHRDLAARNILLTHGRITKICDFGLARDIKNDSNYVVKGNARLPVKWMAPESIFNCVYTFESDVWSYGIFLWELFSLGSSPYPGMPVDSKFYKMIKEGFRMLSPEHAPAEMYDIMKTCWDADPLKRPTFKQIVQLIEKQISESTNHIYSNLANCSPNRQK
T1 sequence (P15056 with tags, fused parts or gaps V600E): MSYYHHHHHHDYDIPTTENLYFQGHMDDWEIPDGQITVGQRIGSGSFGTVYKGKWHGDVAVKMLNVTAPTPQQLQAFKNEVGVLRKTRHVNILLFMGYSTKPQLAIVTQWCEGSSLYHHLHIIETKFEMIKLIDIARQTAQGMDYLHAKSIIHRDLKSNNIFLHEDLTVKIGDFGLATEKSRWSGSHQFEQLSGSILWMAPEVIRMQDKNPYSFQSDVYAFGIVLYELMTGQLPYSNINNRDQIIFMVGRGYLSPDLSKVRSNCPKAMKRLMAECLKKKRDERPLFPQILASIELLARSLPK
Plk1, sequence (P53350 whole entry): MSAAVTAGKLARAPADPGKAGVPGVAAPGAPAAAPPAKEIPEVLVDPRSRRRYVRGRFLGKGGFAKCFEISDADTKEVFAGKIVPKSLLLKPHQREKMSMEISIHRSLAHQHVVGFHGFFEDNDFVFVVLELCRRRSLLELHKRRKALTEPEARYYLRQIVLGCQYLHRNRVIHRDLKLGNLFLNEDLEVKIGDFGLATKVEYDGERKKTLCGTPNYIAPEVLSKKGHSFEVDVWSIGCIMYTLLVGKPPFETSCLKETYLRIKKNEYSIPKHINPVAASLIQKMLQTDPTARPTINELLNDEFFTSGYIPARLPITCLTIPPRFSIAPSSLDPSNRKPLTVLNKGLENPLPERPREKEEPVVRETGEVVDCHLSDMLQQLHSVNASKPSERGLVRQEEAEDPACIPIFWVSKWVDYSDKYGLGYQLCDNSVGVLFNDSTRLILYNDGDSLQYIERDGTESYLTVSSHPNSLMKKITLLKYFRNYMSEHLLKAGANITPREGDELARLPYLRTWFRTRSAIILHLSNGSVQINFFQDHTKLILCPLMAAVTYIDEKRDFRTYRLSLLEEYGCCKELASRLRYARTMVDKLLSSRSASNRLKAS
T9 sequence (P35968 20-1356): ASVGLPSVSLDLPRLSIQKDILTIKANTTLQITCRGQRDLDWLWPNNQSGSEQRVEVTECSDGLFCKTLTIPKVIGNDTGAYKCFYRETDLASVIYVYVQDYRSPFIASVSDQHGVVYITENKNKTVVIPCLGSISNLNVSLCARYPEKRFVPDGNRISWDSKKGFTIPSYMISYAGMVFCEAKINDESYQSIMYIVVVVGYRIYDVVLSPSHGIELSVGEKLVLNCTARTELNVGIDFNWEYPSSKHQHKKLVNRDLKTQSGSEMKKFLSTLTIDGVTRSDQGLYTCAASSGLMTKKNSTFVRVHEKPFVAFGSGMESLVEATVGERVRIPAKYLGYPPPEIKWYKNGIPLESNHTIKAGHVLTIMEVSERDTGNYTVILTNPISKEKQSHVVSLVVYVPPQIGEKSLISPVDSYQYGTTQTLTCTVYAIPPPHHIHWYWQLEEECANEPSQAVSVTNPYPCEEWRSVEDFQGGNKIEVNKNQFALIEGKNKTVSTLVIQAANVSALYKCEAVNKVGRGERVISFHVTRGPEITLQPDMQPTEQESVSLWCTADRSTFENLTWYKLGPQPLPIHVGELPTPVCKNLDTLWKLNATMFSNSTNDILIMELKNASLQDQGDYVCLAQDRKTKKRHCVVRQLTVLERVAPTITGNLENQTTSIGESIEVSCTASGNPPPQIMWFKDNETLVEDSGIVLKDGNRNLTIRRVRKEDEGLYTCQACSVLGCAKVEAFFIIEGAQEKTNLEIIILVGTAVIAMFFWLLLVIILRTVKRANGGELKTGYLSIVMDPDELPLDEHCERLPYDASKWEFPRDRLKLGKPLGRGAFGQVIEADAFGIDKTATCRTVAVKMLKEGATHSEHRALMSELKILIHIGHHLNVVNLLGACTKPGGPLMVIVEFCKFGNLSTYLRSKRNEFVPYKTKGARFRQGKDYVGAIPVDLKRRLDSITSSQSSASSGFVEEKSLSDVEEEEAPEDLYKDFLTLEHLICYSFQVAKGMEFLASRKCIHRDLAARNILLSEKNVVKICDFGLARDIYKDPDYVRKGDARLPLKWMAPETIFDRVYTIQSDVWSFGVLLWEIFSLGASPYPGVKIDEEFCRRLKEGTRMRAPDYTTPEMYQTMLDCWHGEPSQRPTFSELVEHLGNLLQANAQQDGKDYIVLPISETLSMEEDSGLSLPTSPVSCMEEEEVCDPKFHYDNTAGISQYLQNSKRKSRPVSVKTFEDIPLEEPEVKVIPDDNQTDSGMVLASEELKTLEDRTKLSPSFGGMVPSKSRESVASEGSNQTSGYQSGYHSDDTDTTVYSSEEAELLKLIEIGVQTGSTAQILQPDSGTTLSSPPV
T2 sequence (P11362 458-765 C488A/C584S): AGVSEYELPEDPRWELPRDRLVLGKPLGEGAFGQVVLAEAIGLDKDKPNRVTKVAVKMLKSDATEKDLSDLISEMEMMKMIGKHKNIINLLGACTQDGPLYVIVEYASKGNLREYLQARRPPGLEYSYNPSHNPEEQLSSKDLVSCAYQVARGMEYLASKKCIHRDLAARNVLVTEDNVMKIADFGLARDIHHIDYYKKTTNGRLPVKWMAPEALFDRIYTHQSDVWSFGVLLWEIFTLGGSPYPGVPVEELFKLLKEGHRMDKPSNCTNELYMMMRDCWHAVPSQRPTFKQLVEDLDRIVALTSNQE
T6 sequence (P08581 with tags, fused parts or gaps): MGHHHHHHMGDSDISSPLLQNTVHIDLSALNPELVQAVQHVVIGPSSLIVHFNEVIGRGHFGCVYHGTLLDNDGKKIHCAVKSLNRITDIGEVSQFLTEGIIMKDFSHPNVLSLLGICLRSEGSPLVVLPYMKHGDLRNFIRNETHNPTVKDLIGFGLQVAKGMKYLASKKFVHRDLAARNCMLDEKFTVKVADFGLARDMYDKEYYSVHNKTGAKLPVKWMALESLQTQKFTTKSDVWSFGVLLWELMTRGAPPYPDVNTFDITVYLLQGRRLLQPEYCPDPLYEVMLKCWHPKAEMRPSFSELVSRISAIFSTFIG
T12 sequence (P15056 whole entry): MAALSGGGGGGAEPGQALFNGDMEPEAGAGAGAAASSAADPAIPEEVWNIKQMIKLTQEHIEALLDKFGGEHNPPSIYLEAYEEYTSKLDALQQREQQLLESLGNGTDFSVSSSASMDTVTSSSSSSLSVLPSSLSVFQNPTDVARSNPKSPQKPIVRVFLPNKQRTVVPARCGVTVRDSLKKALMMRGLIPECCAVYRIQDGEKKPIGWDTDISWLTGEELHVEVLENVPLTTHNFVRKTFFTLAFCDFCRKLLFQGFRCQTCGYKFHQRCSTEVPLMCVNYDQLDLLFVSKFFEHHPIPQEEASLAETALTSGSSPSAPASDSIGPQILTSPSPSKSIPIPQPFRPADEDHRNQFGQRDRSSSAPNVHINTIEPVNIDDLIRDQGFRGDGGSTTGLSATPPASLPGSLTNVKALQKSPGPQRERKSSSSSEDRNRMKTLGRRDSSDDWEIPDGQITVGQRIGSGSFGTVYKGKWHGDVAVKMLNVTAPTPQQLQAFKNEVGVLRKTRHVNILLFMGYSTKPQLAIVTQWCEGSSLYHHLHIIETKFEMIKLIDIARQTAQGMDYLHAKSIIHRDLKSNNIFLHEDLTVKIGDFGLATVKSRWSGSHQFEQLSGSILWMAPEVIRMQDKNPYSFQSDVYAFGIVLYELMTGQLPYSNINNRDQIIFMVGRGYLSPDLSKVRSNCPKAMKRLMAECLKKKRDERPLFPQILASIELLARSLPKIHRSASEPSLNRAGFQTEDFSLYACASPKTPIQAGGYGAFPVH
T3 sequence (Q05397 411-686): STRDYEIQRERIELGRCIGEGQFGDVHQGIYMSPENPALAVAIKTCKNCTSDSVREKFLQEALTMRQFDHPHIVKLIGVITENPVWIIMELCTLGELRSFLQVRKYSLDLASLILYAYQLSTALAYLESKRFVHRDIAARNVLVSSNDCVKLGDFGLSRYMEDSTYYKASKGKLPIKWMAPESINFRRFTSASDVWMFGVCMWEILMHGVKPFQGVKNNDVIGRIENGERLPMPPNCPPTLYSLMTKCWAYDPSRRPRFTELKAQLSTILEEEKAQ

O=S(=O)(Cc1cccc(Cl)c1)NCc1c[nH]c2ncccc12 [Compound P-1138]
≤ 10 µM: B-Raf V600E | Plk1

O=S(=O)(Cc1ccccc1)NCc1c[nH]c2ncccc12 [Compound P-0581]
≤ 10 µM: Plk1

Cc1cc(C(=O)c2c[nH]c3nccc(-c4cccc(N)c4)c23)n(C)n1 [Compound P-0332]
≤ 10 µM: Plk1

CCN(CC)c1ccc(Nc2cnc3[nH]ccc3c2)cc1 [Compound P-0951]
≤ 10 µM: FGFR1 | Fak | Kit | B-Raf V600E | Jnk3 | Met | Itk | Akt3 | Flt1 | Kdr

O=C(O)CCc1c[nH]c2ncccc12 [Compound P-0490]
≤ 10 µM: Plk1

O=[N+]([O-])c1cccc(S(=O)(=O)NCc2ccnc3[nH]ccc23)c1 [Compound P-0480]
≤ 10 µM: Plk1

Oc1cccc(Cc2c[nH]c3ncc(-c4cccnc4)cc23)c1F [Compound P-0778, 2-Fluoro-3-(5-pyridin-3-yl-1H-pyrrolo[2,3-b]pyridin-3-ylmethyl)-phenol]
≤ 10 µM: Ret | Fms | Kit | B-Raf | B-Raf V600E | Jnk3 | Met | c-Raf-1 | Itk

O=[N+]([O-])c1ccc(S(=O)(=O)NCc2ccnc3[nH]ccc23)cc1 [Compound P-0366]
≤ 10 µM: Plk1

COc1cccc(C(=O)c2c[nH]c3ncc(-c4cccc(N)c4)cc23)c1 [Compound P-0579]
not listed: Plk1 | Fak | Met | Akt3 | Fms | c-Raf-1 | Btk | Stk6
≤ 10 µM: all other assays above

O=C(c1ccc(Cl)cc1)c1c[nH]c2nccc(-c3cccnc3)c12 [Compound P-0113]
≤ 10 µM: Btk | Ret | Kdr | Plk1

Clc1ccc(Cc2c[nH]c3nccc(-c4ccccc4)c23)cn1 [Compound P-0286]
≤ 10 µM: Ret | Plk1

O=S(=O)(NCc1ccnc2[nH]ccc12)c1ccc(F)c(F)c1 [Compound P-0345]
≤ 10 µM: Stk6 | Plk1
